Results: paper PMC12116161, “An Elastase Inhibitor ShSPI from Centipede Attenuates Bleomycin-Induced Pulmonary Fibrosis” (Toxins, 2025)
Entries after “also recorded” stand apart in the source; their conditions may differ. Where a SMILES comes first, the peptide text is derived from it. Bridges are numbered along the chain shown (N, C = ends).

Legend:
[1] = Pharmacokinetic study of ShSPI (plasma, LC-MS/MS); format: in vivo, mice; design: CI/F: unit not given here
Description: Each plasma sample was analyzed by LC-MS/MS, and the raw data were processed by DAS pharmacokinetic v2.1.1 software to obtain pharmacokinetic parameters (Table 3) and blood concentration–time curves (Figure 5).
Grouping and Sampling: SIPF grade Sprague Dawley (SD) healthy rats (male, procured from Hunan Slaughter King Laboratory Animal Co.) were randomly divided into three groups, with three rats in each group. All groups received a single administration of the ShSPI and were fasted for 12 h prior to dosing. The groups included two inhalation groups (1 mg/kg and 2 mg/kg) and an intravenous tail vein injection group (1 mg/kg). Blood samples were collected from the subclavian vein at 5 min, 15 min, 30 min, 1 h, 2 h, 4 h, 8 h, and 24 h post-dosing. A 0.2 mL blood sample was transferred into pre-labeled EDTA-2K anticoagulant tubes and gently inverted to ensure thorough mixing of the anticoagulant with the blood. Samples were immediately placed on ice. Plasma was separated within 1 h by centrifugation at 6800 rpm for 5 min at 4 °C. The supernatant was collected and stored at −20 °C until analysis.
Sample Preparation Before Analysis: Sample preparation was conducted under yellow light in an ice-water bath. For each analysis, 30 μL of standard or experimental sample was mixed with 200 μL of working solution, while blank samples were prepared with an equivalent volume of methanol. The mixture was vortexed thoroughly and centrifuged at 5500 rpm for 10 min. A 150 μL aliquot of the supernatant was mixed with 150 μL of ultrapure water, and the final mixture was subjected to analysis.
Chromatographic and Mass Spectrometry Conditions: Chromatographic separation was performed using an AQ C18 column (2.1 × 50 mm, 5.0 μm). The injection volume was 10 μL. The mobile phase consisted of 0.1% formic acid in water (A) and methanol (B), with the following gradient program: 10% B at 0–0.01 min, 98% B at 0.01–1.8 min, 98% B at 1.8–2.5 min, and 10% B at 2.5–3.0 min. The flow rate was set at 0.6 mL/min. Mass spectrometry analysis was performed using an electrospray ionization (ESI) source in multiple reaction monitoring (MRM) mode.

[2] = system: ICR healthy mice; assay: Single administration toxicity study: hematological examination; format: in vivo; settings: single airway spray, day 14 post-dose, EDTA whole blood, automated hematology analyzer, mean ± s
Description: Specific pathogen-free (SIPF) grade ICR healthy mice (with an equal number of males and females, procured from Hunan Slaughter King Laboratory Animal Co., Changsha, China) were randomly divided into four experimental groups and received ShSPI via airway spray at doses of 0 mg/kg (control), 40 mg/kg, 80 mg/kg, or 160 mg/kg in a single administration. Following treatment, the mice were monitored for a 14-day observation period. On the fourteenth day, blood plasma samples were collected for precise measurement and analysis of hematological and biochemical parameters. The specific process is as follows.
On day 14 post-dose, approximately 1.7–2.0 mL of whole blood was collected for hematological and biochemical analyses. Hematological parameters were assessed using an automated hematology analyzer, while biochemical parameters were evaluated with an automated biochemistry analyzer. Prior to blood collection, all mice were fasted for at least 12 h. For hematological analysis, 200 μL of whole blood was immediately transferred into EDTA-containing tubes. For biochemical analysis, 1.5 mL of whole blood was placed into serum separator tubes without anticoagulant and centrifuged to isolate serum.

[3] = male, Sprague Dawley, inhaled or intranasal, 1 mg/kg ShSPI, single inhalation, plasma, LC-MS/MS, DAS software, mean ± s, n = 3, method SD rats
[4] = male, Sprague Dawley, inhaled or intranasal, 2 mg/kg ShSPI, single inhalation, plasma, LC-MS/MS, DAS software, mean ± s, n = 3, method SD rats

## CC[C@H](C)[C@@H]1NC(=O)[C@H](C)NC(=O)[C@@H]2CCCN2C(=O)[C@@H]2CSSC[C@H](NC(=O)[C@H](CO)NC(=O)[C@H](CC(N)=O)NC(=O)[C@H](CO)NC(=O)[C@H](Cc3ccc(O)cc3)NC(=O)[C@H](CCSC)NC(=O)[C@H](CCCNC(=N)N)NC(=O)CNC(=O)[C@H](Cc3ccccc3)NC(=O)[C@H](CCC(=O)O)NC(=O)[C@H](CC(=O)O)NC(=O)[C@H](Cc3ccccc3)NC(=O)[C@H](C(C)C)NC(=O)[C@@H]3CCCN3C(=O)[C@H](CCC(N)=O)NC(=O)[C@H](Cc3ccc(O)cc3)NC1=O)C(=O)N[C@@H](CCC(=O)O)C(=O)N[C@@H](CCSC)C(=O)N[C@@H](CCC(N)=O)C(=O)N[C@@H](CCCNC(=N)N)C(=O)N[C@@H](C)C(=O)N[C@@H](CCCNC(=N)N)C(=O)N[C@H](C(=O)N[C@@H](CC(C)C)C(=O)N[C@@H](CCCNC(=N)N)C(=O)NCC(=O)O)CSSC[C@H](N)C(=O)N1CCC[C@H]1C(=O)N[C@@H](CCC(N)=O)C(=O)N[C@@H](C(C)C)C(=O)N2 [ShSPI] (H-CPQVCPAIYQPVFDEFGRMYSNSCEMQRARCLRG-OH; disulfide 1-31, 5-24; N-terminus and C-terminus assumed)
[1]; 2 mg/kg ShSPI, single inhalation, plasma, LC-MS/MS, DAS software, mean ± s, n = 3, table says mice, method SD rats
  CI/F: 29.00 ± 11.90
[1]; inhalation, doses of 1 mg/kg and 2 mg/kg, 8 h post-administration, LC-MS/MS
  detectability in vivo (plasma) at 8 h post-administration: detected; also recorded: detectable
[1]; inhalation, doses of 1 mg/kg and 2 mg/kg, 24 h post-administration, LC-MS/MS
  detectability in vivo (plasma) at 24 h post-administration: no longer detectable
[1]; [3]
  AUC(0-t): 580 ± 294 ng·h/mL
  Cmax: 188 ± 64.4 ng/mL
  MRT: 2.86 ± 0.725 h
[1]; male, Sprague Dawley, inhaled or intranasal, 1 mg/kg ShSPI, single inhalation, plasma, LC-MS/MS, DAS software, n = 3, method SD rats
  Tmax: 1 h
[1]; [4]
  AUC(0-inf): 1260 ± 422 ng·h/mL
  AUC(0-t): 1170 ± 415 ng·h/mL
  Cmax: 347 ± 151 ng/mL
  MRT: 3.1 ± 0.898 h
  half-life: 2.14 ± 0.663 h
[1]; male, Sprague Dawley, inhaled or intranasal, 2 mg/kg ShSPI, single inhalation, plasma, LC-MS/MS, DAS software, n = 3, method SD rats
  Tmax: 1 h
[1]; overall assessment in words
  overall metabolism in mice: moderate
[2]; 40 mg/kg ShSPI, n = 6
  Bas: 0.02 ± 0.01 10^9/L
  Bas%: 0.35 ± 0.28%
  Eos: 0.09 ± 0.05 10^9/L
  HCT: 36.98 ± 1.32%
  HGB: 123.50 ± 5.64 g/L
  Lym: 6.40 ± 2.49 10^9/L
  Lym%: 78.20 ± 2.18%
  MCH: 15.86 ± 0.43 pg
  MCHC: 333.50 ± 3.98 g/L
  MCV: 47.56 ± 0.95 fL
  MPV: 5.35 ± 0.18 fL
  Mon: 0.28 ± 0.13 10^9/L
  Mon%: 3.35 ± 0.74%
  Neu: 1.41 ± 0.69 10^9/L
  Neu%: 16.78 ± 1.90%
  PCT: 0.71 ± 0.04%
  PDW: 15.21 ± 0.17
  PLT: 1326.50 ± 494.34 10^9/L
  RBC: 7.78 ± 0.23 10^12/L
  RDW-CV: 12.70 ± 0.76%
  RDW-SD: 26.68 ± 1.26 fL
  WBC: 8.22 ± 3.30 10^9/L
[2]; 80 mg/kg ShSPI, n = 6
  Bas: 0.03 ± 0.04 10^9/L
  Bas%: 0.56 ± 0.60%
  Eos: 0.22 ± 0.20 10^9/L
  Eos%: 3.10 ± 2.15%
  HCT: 35.93 ± 2.11%
  HGB: 120.33 ± 6.83 g/L
  Lym: 4.66 ± 1.68 10^9/L
  Lym%: 68.93 ± 6.78%
  MCH: 16.08 ± 0.40 pg
  MCHC: 335.33 ± 6.28 g/L
  MCV: 47.95 ± 0.38 fL
  MPV: 5.48 ± 0.48 fL
  Mon: 0.38 ± 0.05 10^9/L
  Neu: 1.35 ± 0.40 10^9/L
  Neu%: 21.23 ± 5.92%
  PCT: 0.69 ± 0.09%
  PDW: 15.33 ± 0.10
  PLT: 1272 ± 206.81 10^9/L
  RBC: 7.49 ± 0.34 10^12/L
  RDW-CV: 12.18 ± 0.22%
  RDW-SD: 25.75 ± 1.03 fL
  WBC: 6.66 ± 2.04 10^9/L
[2]; 80 mg/kg ShSPI, n = 6, * p < 0.05 vs blank control
  Mon%: 6.16 ± 1.76 * %
[2]; 160 mg/kg ShSPI, n = 6
  Bas: 0.02 ± 0.01 10^9/L
  Bas%: 0.20 ± 0.12%
  Eos: 0.21 ± 0.19 10^9/L
  Eos%: 1.85 ± 1.23%
  HCT: 37.81 ± 1.30%
  HGB: 126.66 ± 4.36 g/L
  Lym: 8.63 ± 2.79 10^9/L
  Lym%: 75.90 ± 6.54%
  MCH: 16.05 ± 0.40 pg
  MCHC: 335.33 ± 4.13 g/L
  MCV: 47.86 ± 65 fL
  MPV: 5.21 ± 0.21 fL
  Mon: 0.42 ± 0.21 10^9/L
  Mon%: 3.58 ± 0.74%
  Neu: 2.23 ± 1.28 10^9/L
  Neu%: 18.46 ± 5.30%
  PCT: 0.78 ± 0.07%
  PDW: 15.21 ± 0.07
  PLT: 1511.2 ± 178.44 10^9/L
  RBC: 7.90 ± 0.31 10^12/L
  RDW-CV: 12.83 ± 0.74%
  RDW-SD: 27.20 ± 1.81 fL
  WBC: 11.5 ± 4.13 10^9/L
